This assay concerns the target T1, Human STING (Homo sapiens, UniProt Q86WV6, G230A/H232R/R293Q/R71H).
T1 construct: host or cells: THP1-Dual KO-IFNAR2 cells
Description: STING reporter assay (luciferase) in THP1-Dual KO-IFNAR2 cells stimulated with 2′3′cGAMP. The class given is cell-based. Particulars: 15 μM 2′3′cGAMP, 24 h. Here is the method: STING pathway activation by the compounds described herein is measured using THP1 Dual™ cells (KO-IFNAR2).
THP1-Dual™ KO-IFNAR2 Cells (obtained from invivogen) are maintained in RPMI, 10% FCS, 5 ml P/S, 2 mM L-glut, 10 mM Hepes, and 1 mM sodium pyruvate. Compounds are spotted in empty 384 well tissue culture plates (Greiner 781182) by Echo for a final concentration of 0.0017-100 μM. Cells are plated into the TC plates at 40 μL per well, 2×10E6 cells/mL. For activation with STING ligand, 2′3′cGAMP (MW 718.38, obtained from Invivogen), is prepared in Optimem media.
The following solutions are prepared for each 1×384 plate: • Solution A: 2 mL Optimem with one of the following stimuli: • 60 uL of 10 mM 2′3′cGAMP ->150 μM stock • Solution B: 2 mL Optimem with 60 μL Lipofectamine 2000->Incubate 5 min at RT
2 mL of solution A and 2 ml Solution B is mixed and incubated for 20 min at room temperature (RT). 20 uL of transfection solution (A+B) is added on top of the plated cells, with a final 2′3′cGAMP concentration of 15 μM. The plates are then centrifuged immediately at 340 g for 1 minute, after which they are incubated at 37° C., 5% CO2, >98% humidity for 24 h. Luciferase reporter activity is then measured. EC50 values were calculated by using standard methods known in the art.
Luciferase reporter assay: 10 μL of supernatant from the assay is transferred to white 384-plate with flat bottom and squared wells. one pouch of QUANTI-Luc™ Plus is dissolved in 25 mL of water. 100 μL of QLC Stabilizer per 25 mL of QUANTI-Luc™ Plus solution was added. 50 μL of QUANTI-Luc™ Plus/QLC solution per well is then added. Luminescence is measured on a Platereader (e.g., Spectramax I3X (Molecular Devices GF3637001)).
Luciferase reporter activity is then measured. EC50 values are calculated by using standard methods known in the art.

As usually defined, the EC50 is the concentration giving half of the maximal effect. Read a low EC50 as a more potent agent.

T1 sequence (Q86WV6 whole entry R71H/G230A/H232R/R293Q): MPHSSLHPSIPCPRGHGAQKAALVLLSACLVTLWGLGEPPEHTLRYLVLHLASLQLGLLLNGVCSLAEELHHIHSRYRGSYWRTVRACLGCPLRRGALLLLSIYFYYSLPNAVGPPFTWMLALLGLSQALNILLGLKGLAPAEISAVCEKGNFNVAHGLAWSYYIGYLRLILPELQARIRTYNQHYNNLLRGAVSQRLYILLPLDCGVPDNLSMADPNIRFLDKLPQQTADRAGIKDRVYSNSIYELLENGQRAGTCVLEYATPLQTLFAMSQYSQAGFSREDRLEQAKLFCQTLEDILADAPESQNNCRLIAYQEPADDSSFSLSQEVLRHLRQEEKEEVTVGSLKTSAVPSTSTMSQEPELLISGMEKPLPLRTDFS

Where the note is “class symbols”, `c1ccc(-c2ccc(Nc3c[nH]c4cccnc34)nc2)cc1` [Compound 169] displayed an EC50 of 5 to 30 µM.

For `O=c1cc(-c2ccccc2)[nH]c(Nc2c[nH]c3cc(F)c(F)cc23)n1` [Compound 163, 2-[(5,6-difluoro-1H-indol-3-yl)amino]-6-phenyl-1H-pyrimidin-4-one], for the setting “class symbols”, the EC50 was in the range of 5 to 30 µM.

As for `O=c1nc(Nc2c[nH]c3cccnc23)ccn1-c1ccccc1` [Compound 168], under “numeric bounds”, the EC50 was more than 100 µM.

Regarding `c1ccc(-c2ccnc(Nc3c[nH]c4ccccc34)n2)cc1` [Compound 158], the EC50 (class symbols) lay within 1 to 5 µM.

Regarding `c1ccc(-c2ccnc(Nc3c[nH]c4cccnc34)c2)cc1` [Compound 102, N-(4-phenylpyridin-2-yl)-1H-pyrrolo[3,2-b]pyridin-3-amine], the 50% effective concentration (EC50) (class symbols) was in the range of 5 to 30 µM.

Regarding `Fc1cnc2[nH]cc(Nc3ncc(-c4ccccc4)o3)c2c1` [Compound 101, N-[5-fluoro-1H-pyrrolo[2,3-b]pyridin-3-yl]-5-phenyl-1,3-oxazol-2-amine], the EC50 (class symbols) is 0.2 to 1 µM.

As for `O=c1cc[nH]c(Nc2c[nH]c3cc(F)c(F)cc23)n1` [Compound 164], the EC50 (numeric bounds) is more than 30 µM.

Consider `c1ccc2cc(Nc3c[nH]c4ccccc34)ncc2c1` [Compound 166], for which, for the setting “class symbols”, the concentration for a half-maximal effect (EC50) lay within 1 to 5 µM.

In turn, `c1ccc2nc(Nc3c[nH]c4ccccc34)ccc2c1` [Compound 167] displayed a 50% effective concentration (EC50) (class symbols) of 1 to 5 µM.

`Fc1cc2[nH]cc(Nc3ccc4cc(C(F)(F)F)ccc4n3)c2cc1F` [Compound 161, N-(5,6-difluoro-1H-indol-3-yl)-6-(trifluoromethyl)quinolin-2-amine]: the EC50 (class symbols) was in the range of 1 to 5 µM.

In the case of `c1ccc2nc(Nc3c[nH]c4ccccc34)ncc2c1` [Compound 159], under “class symbols”, the EC50 was 5 to 30 µM.

In turn, `Fc1cc2[nH]cc(Nc3ccc4ccc(C(F)(F)F)cc4n3)c2cc1F` [Compound 162] displayed a 50% effective concentration (EC50) (class symbols) of 0.2 to 1 µM.

`O=c1cc(-c2ccccc2)[nH]c(Nc2c[nH]c3cccnc23)n1` [Compound 160] gave a concentration for a half-maximal effect (EC50) (class symbols) of 1 to 5 µM.

`c1ccc(-c2cnc(Nc3c[nH]c4ccccc34)s2)cc1` [Compound 165] came in with an EC50 (class symbols) of 0.2 to 1 µM.

`c1ccc2sc(Nc3c[nH]c4ccccc34)nc2c1` [Compound 103] had an EC50 (class symbols) of 1 to 5 µM.

The record behind these values is US20220227760A1, “COMPOUNDS AND COMPOSITIONS FOR TREATING CONDITIONS ASSOCIATED WITH STING ACTIVITY” (IFM Due, Inc., priority 2019, published 2022).
